Where a name gives a salt, the structure may show the parent alone.

As a reminder, the melting point is the temperature of the solid-liquid transition. Turning to `c1ccc(CC2CCN(Cc3ncc(-c4ccccc4)[nH]3)CC2)cc1` (as salt: fumarate) [Compound 77, 4phenyl-2(5)-[(4-benzylpiperidin-1-yl)-methyl]imidazole], the melting point lay in the range of 155 to 157 °C.
To `COc1ccc(Br)cc1-c1ncc(CN(C)C)[nH]1` (as salt: hydrochloride) [Compound 1, 2-(5-bromo-2-methoxyphenyl)-4(5)-[(N,N-dimethyl)aminomethyl]-imidazole dihydrochloride] belongs 242 to 243 °C.
The figure for `COc1cc(Br)cc(-c2ncc(CN(C)C)[nH]2)c1OC` (as salt: hydrochloride) [Compound 16, 2-(5-Bromo-2,3-dimethoxyphenyl)-4(5)-[(N,N-dimethyl)aminomethyl]-imidazole dihydrochloride] is 194 °C; for `COc1ccccc1N1CCN(Cc2cnc(-c3cccc(OC)c3OC)[nH]2)CC1` (as salt: hydrochloride) [Compound 21, 2-(2,3-Dimethoxyphenyl)-4(5)-[(4-(2-methoxyphenyl)-piperazin-1-yl)-methyl]-imidazole dihydrochloride] it is 217 to 218 °C.
`COc1ccccc1N1CCN(Cc2cnc(-c3cccc(Cl)c3)[nH]2)CC1` (as salt: hydrochloride) [Compound 22, 2-(3-Chlorophenyl)-4(5)-[(4-(2-methoxyphenyl)-piperazin-1-yl)-methyl]-imidazole dihydrochloride] returned a melting point of 198 to 199 °C.
The figure for `c1ccc(CC2CCN(Cc3cnc(-c4ccccc4)[nH]3)CC2)cc1` (as salt: hydrochloride) [Compound 25, 2-Phenyl-4(5)-[(4-benzyl-piperidin-1-yl)methyl]-imidazole dihydrochloride] is 234 to 236 °C.
The figure for `c1ccc(-c2nc(CN3CCC(c4ccccc4)CC3)c[nH]2)cc1` (as salt: hydrochloride) [Compound 26, 2-Phenyl-4(5)-[(4-phenyl-piperidin-1-yl)-methyl]-imidazole dihydrochloride] is 238 to 240 °C; for `COc1ccc(Cl)cc1-c1ncc(CN2CCN(c3ccccc3OC)CC2)[nH]1` (as salt: hydrochloride) [Compound 43, 2-(5-Chloro-2-methoxyphenyl)-4(5)-[(4-(2-methoxyphenyl)-piperazin-1-yl)-methyl]-imidazole dihydrochloride] it is 138 to 143 °C.
To `COc1ccc(-c2ncc(CN3CCC(c4ccccc4)CC3)[nH]2)cc1` (as salt: hydrochloride) [Compound 47, 2-(4-Methoxyphenyl)-4(5)-[(4-phenyl-piperidin-1-yl)-methyl]-imidazole dihydrochloride] belongs 196 to 199 °C; to `COc1cccc(-c2ncc(CN3CCC(c4ccccc4)CC3)[nH]2)c1` (as salt: hydrochloride) [Compound 50, 2-(3-Methoxyphenyl)-4(5)[(4-phenyl-piperidin-1-yl)-methyl]-imidazole dihydrochloride], 114 to 117 °C; to `CCc1ccc(OC)c(-c2ncc(CN3CCN(c4ccccc4OC)CC3)[nH]2)c1` (as salt: hydrochloride) [Compound 55, 2-(5-Ethyl-2-methoxyphenyl-4(5)-[(4-(2-methoxyphenyl)-piperazin-1-yl)-methyl]-imidazoledihydrochloride], 61 to 64 °C.
`Fc1ccc(N2CCN(Cc3cnc(-c4ccccc4)[nH]3)CC2)cc1` (as salt: hydrochloride) [Compound 56, 2-Phenyl-4(5)-[(4(4-fluorophenyl)-piperazin-1yl-)methyl]imidazole dihydrochloride]: the melting point is 64 to 68 °C.
To `Fc1ccnc(N2CCN(Cc3c[nH]c(-c4ccccc4)n3)CC2)n1` (as salt: hydrochloride) [Compound 58, 2-Phenyl-4(5)-[(4(4-fluoro-2-pyrimidinyl)-piperazin-1yl)-methyl]imidazole dihydrochloride] belongs 188 to 190 °C; to `Cc1ccc(Cl)cc1N1CCN(Cc2cnc(-c3ccccc3)[nH]2)CC1` (as salt: hydrochloride) [Compound 60, 2-Phenyl-4(5)-[(4(5-chloro-2-methylphenyl)-piperazin-1yl-)-methyl]imidazole dihydrochloride], 142 to 145 °C; to `CC(c1cnc(-c2ccccc2)[nH]1)N1CCC(Cc2ccccc2)CC1` (stereo not shown) (as salt: hydrochloride) [Compound 91, 2-phenyl-4(5)-[1-((4-benzyl-piperidin-1-yl)-ethan-1-yl)]imidazole dihydrochloride salt], 169 to 171 °C.
Compound `Ic1nc(-c2ccccc2)[nH]c1CN1CCN(c2ncccn2)CC1` (as salt: hydroiodid) [Compound 90, 2-phenyl-5-iodo-4(5)-[(4-(2-pyrimidinyl)piperazin-1-yl)methyl]-imidazole hydroiodide salt] displayed a melting point of 196 to 199 °C.
To `Fc1ccccc1-c1nc(CN2CCC(c3ccccc3)CC2)c[nH]1` (as salt: maleate) [Compound 52, 2-(2-Fluorophenyl)-4(5)[(4-phenyl-piperidin-1-yl)-methyl]-imidazole dimaleate] belongs 142 to 144 °C; to `COc1ccccc1N1CCN(Cc2cnc(-c3ccccc3)[nH]2)CC1` [Compound 19, 2-phenyl-4(5)-[(4-(2-methoxyphenyl)-piperazin-1-yl)-methyl]imidazole], 105 to 107 °C.
To `COc1ccccc1N1CCN(Cc2cnc(-c3ccc(F)cc3)[nH]2)CC1` [Compound 20, 2-(4-Fluorophenyl)-4(5)-[(4-(2-methoxyphenyl)-piperazin-1-yl)-methyl]-imidazole] belongs 95 to 97 °C.
To `Clc1ccc(N2CCN(Cc3cnc(-c4ccccc4)[nH]3)CC2)cc1Cl` [Compound 61, 2-Phenyl-4(5)-[(4(3,4-dichlorophenyl)-piperazin-1yl-)methyl]imidazole] belongs 179 to 181 °C; to `c1ccc(CC2CCN(Cc3cnc(-c4cccc5ccccc45)[nH]3)CC2)cc1` [Compound 92, 2-(1-naphthyl)-4(5)-[(4-benzyl-piperidin-1-yl)-methyl]imidazole], 81 to 83 °C.
Compound `O=C(c1ccccc1)c1ncc(CN2CCN(c3ncccn3)CC2)[nH]1` [Compound 116, 2-(benzoyl)-4(5)-[(4-(2-pyrimidinyl)-piperazin-1-yl)-methyl]-imidazole] returned a melting point of 177 to 179 °C.
The figure for `O=C(/C=C/c1cnc(-c2ccccc2)[nH]1)N1CCN(c2ncccn2)CC1` [Compound 119, 2-phenyl-4(5)-[(4(2-pyrimidinyl)-piperazin-1-yl)-propen-1-oyl]-imidazole] is 235 to 236 °C; for `O=C(CCc1cnc(-c2ccccc2)[nH]1)N1CCN(c2ncccn2)CC1` [Compound 122, 2-phenyl-4(5)-[(4-(2-pyrimidinyl)-piperazin-1-yl)-propan-1-oyl]-imidazole] it is 143 to 148 °C; for `c1ccc(-c2ncc(CCCN3CCN(c4ncccn4)CC3)[nH]2)cc1` [Compound 125, 2-phenyl-4(5)-[(4-(2-pyrimidinyl)-piperazin-1-yl)-propan-1-yl]-imidazole] it is 133 to 135 °C.
`c1cnc(N2CCN(Cc3cnc(C4CCCCC4)[nH]3)CC2)nc1` [Compound 128, 2-cyclohexyl-4(5)-[(4-(2-pyrimidinyl)-piperazin-1-yl)-methyl]-imidazole] returned a melting point of 210 to 213 °C.
The figure for `c1ccc(-c2nc(-c3ccccc3)c(CN3CCN(c4ncccn4)CC3)[nH]2)cc1` [Compound 132, 2,5-diphenyl-4(5)-[(4-(2-pyrimidinyl)piperazin-1-yl)methyl]-imidazole] is 221 to 225 °C.
To `c1ccc(CC2CCN(CC3CCCc4[nH]c(-c5ccccc5)nc43)CC2)cc1` (stereo not shown) [Compound 138, 2-phenyl-7-[(4-benzyl-piperidin-1-yl)-methyl]-4,5,6,7-tetrahydrobenzimidazole] belongs 189 to 191 °C; to `C[C@@H]1CN(c2ncccn2)C[C@H](C)N1Cc1cnc(-c2ccccc2)[nH]1` [Compound 140, 2-phenyl-4(5)-[(4-(2-pyrimidinyl)-cis-2,6-dimethylpiperazin-1-yl)-methyl]-imidazole], 130 to 135 °C.
To `c1ccc(-c2ncc(CCN3CCN(c4ncccn4)CC3)[nH]2)cc1` [Compound 143, 2-phenyl-4(5)-[(4-(2-pyrimidinyl)-piperazin-1-yl)-ethan-1-yl]-imidazole] belongs 142 to 144 °C; to `O=C(c1cnc(-c2ccccc2)[nH]1)N1CCN(c2ncccn2)CC1` [Compound 144, 2-phenyl-4(5)-N-[(4-(2-pyrimidinyl)-piperazin-1-yl)-carboxamido]-imidazole], 231 to 232 °C.

(Values after US6797824B2, “Certain 4-aminomethyl-2-substituted imidazole derivatives and 2-aminomethyl-4-substituted imidazole derivatives; new classes of dopamine receptor subtype specific ligands” (Neurogen Corporation, priority 1990, dated 2004).)
